This note sets out measurements from patent US7446195B2, “High affinity thiophene-based and furan-based kinase ligands” (Schering Corporation, priority 2005, dated 2008).

Bounds are passed on as bounds.

The assay deals with CDK-2 (Homo sapiens, UniProt P24941). Nature of the assay: CDK-2 inhibition (Table 1; fluorescence polarization displacement assay). Format: binding. Conditions: inhibitory effectiveness toward CDK-2. How it is done: The affinity of lead inhibitors binding to CDK-2 and CDK-2/cyclin A were determined by measuring a Ki value using a fluorescence polarization displacement assay. The deacetylated form of compound BMS-250595 was reacted with Alexa Fluor 647 to generate a compound (BMS-Alexa Fluor647) that bound to both proteins and provided a signal for fluorescence polarization displacement. Binding assays were performed in a 384 well Costar NBS coated plate. A total volume of […] contained concentrations of CDK-2 or CDK-2/cyclin A at […], respectively. The concentration of BMS-Alexa Fluor647 was 50 nM. Serial dilutions of compounds were added to 12 wells. The final buffer concentration was 10 mM Hepes, pH 7.5, 150 mM NaCl, and 1 mM DTT. Samples were incubated at room temperature for 15 minutes and then read in an Analyst HT instrument using an excitation and emission wavelength of 580 and 680 nm, respectively. The […] curve fitting tool described by Zhang et al., 2004 (Zhang R., Mayhood T., Lipari P., Wang Y., Durkin D., Syto R., Gesell J., McNemar C., and Windsor W., Analytical Biochemistry 331 (2004) 138-146)

Regarding `COc1ccc(N(C)C(=O)c2ccc(C(=O)Nc3ccc(-n4cncn4)cc3)s2)cc1` [Compound 68], the IC50 was 1 to 40 µM. Next, `O=C(Nc1ccncc1)c1ccc(C(=O)Nc2ccc(-n3cncn3)cc2)o1` [Compound 69]: 1 to 40 µM; `CNCc1ccc(NC(=O)c2ccc(C(=O)Nc3ccc(-n4cncn4)c(F)c3)s2)c(C)c1` [Compound 70]: 1 to 40 µM. Next, `COc1ccc(NC(=O)c2ccc(C(=O)N3CCC(c4ccccn4)C3)s2)c(C)c1` (stereo not drawn) [Compound 71]: 1 to 40 µM. In turn, `COc1ccc(N(C)C(=O)c2ccc(C(=O)Nc3ccc(-n4cncn4)cc3)s2)c(C)c1` [Compound 72] registered an IC50 of 1 to 40 µM.

The compound `O=C(Nc1ccc(-n2cncn2)cc1)c1ccc(C(=O)NC2CCCC2)s1` [Compound 73] returned an IC50 of 1 to 40 µM. Next, `O=C(Nc1ccc(-n2cncn2)cc1)c1ccc(C(=O)N2CCc3ccccc3C2)s1` [Compound 74]: 1 to 40 µM; `COC(=O)c1cc(OC)ccc1NC(=O)c1ccc(C(=O)Nc2ccc(-n3cncn3)cc2)s1` [Compound 75]: 1 to 40 µM; `COc1ccc(C(=O)Nc2ccc(C(=O)N3CCC(Oc4cnccn4)CC3)s2)c(C)c1` [Compound 76]: 1 to 40 µM. The result for `O=C(Nc1ccc(-n2cncn2)c(F)c1)c1ccc(C(=O)Nc2ccccc2-c2ccccc2)s1` [Compound 77] reads 1 to 40 µM; that for `O=C(NCCc1cccnc1)c1ccc(C(=O)Nc2ccc(-n3cncn3)cc2)s1` [Compound 78], 1 to 40 µM. Next, `COc1ccc(NC(=O)c2ccc(C(=O)Nc3ccc(-n4cncn4)cc3)s2)c(C(=O)O)c1` [Compound 79]: 1 to 40 µM; `O=C(Nc1ccc(-n2cncn2)cc1)c1ccc(C(=O)NC2CC2)s1` [Compound 80]: at least 40 µM; `CC(C)NC(=O)c1ccc(C(=O)Nc2ccc(-n3cncn3)cc2)s1` [Compound 81]: at least 40 µM. `O=C(Nc1ccc(-n2cncn2)cc1)c1ccc(C(=O)NC2CCC2)s1` [Compound 82] yielded an IC50 of at least 40 µM. Next, `CC(C)CNC(=O)c1ccc(C(=O)Nc2ccc(-n3cncn3)cc2)s1` [Compound 83]: at least 40 µM. The result for `O=C(Nc1ccc(-n2cncn2)cc1)c1ccc(C(=O)N2CCCCC2)s1` [Compound 84] reads at least 40 µM; that for `O=C(Nc1ccc(-n2cncn2)cc1)c1ccc(C(=O)N2CCOCC2)s1` [Compound 85], at least 40 µM; that for `CCCCN(C)C(=O)c1ccc(C(=O)Nc2ccc(-n3cncn3)cc2)s1` [Compound 86], at least 40 µM.

For the compound `CN(C)CCNC(=O)c1ccc(C(=O)Nc2ccc(-n3cncn3)cc2)s1` [Compound 87], the IC50 is at least 40 µM. Next, `COC[C@H](C)NC(=O)c1ccc(C(=O)Nc2ccc(-n3cncn3)cc2)s1` [Compound 88]: at least 40 µM; `O=C(Nc1ccccc1)c1ccc(C(=O)Nc2ccc(-n3cncn3)cc2)s1` [Compound 89]: at least 40 µM. In turn, `O=C(Nc1ccc(-n2cncn2)cc1)c1ccc(C(=O)Nc2ccccn2)s1` [Compound 90] showed a 50% inhibitory concentration (IC50) of at least 40 µM. Next, `O=C(Nc1ccc(-n2cncn2)cc1)c1ccc(C(=O)NC2CCCCC2)s1` [Compound 91]: at least 40 µM; `O=C(Nc1ccc(-n2cncn2)cc1)c1ccc(C(=O)Nc2nccs2)s1` [Compound 92]: at least 40 µM; `O=C(NC[C@H]1CCCO1)c1ccc(C(=O)Nc2ccc(-n3cncn3)cc2)s1` [Compound 93]: at least 40 µM.

Regarding `O=C(NC[C@@H]1CCCO1)c1ccc(C(=O)Nc2ccc(-n3cncn3)cc2)s1` [Compound 94], the IC50 is at least 40 µM. Next, `CC(CN(C)C)NC(=O)c1ccc(C(=O)Nc2ccc(-n3cncn3)cc2)s1` (stereo not drawn) [Compound 95]: at least 40 µM; `CN(C(=O)c1ccc(C(=O)Nc2ccc(-n3cncn3)cc2)s1)c1ccccc1` [Compound 96]: at least 40 µM; `O=C(NCc1ccccn1)c1ccc(C(=O)Nc2ccc(-n3cncn3)cc2)s1` [Compound 97]: at least 40 µM. The result for `O=C(NCc1ccncc1)c1ccc(C(=O)Nc2ccc(-n3cncn3)cc2)s1` [Compound 98] reads at least 40 µM; that for `O=C(NCc1cccnc1)c1ccc(C(=O)Nc2ccc(-n3cncn3)cc2)s1` [Compound 99], at least 40 µM. `Cc1ccnc(NC(=O)c2ccc(C(=O)Nc3ccc(-n4cncn4)cc3)s2)c1` [Compound 100] yielded an IC50 of at least 40 µM. The result for `Cc1cccc(NC(=O)c2ccc(C(=O)Nc3ccc(-n4cncn4)cc3)s2)n1` [Compound 101] reads at least 40 µM. The result for `CN(Cc1ccco1)C(=O)c1ccc(C(=O)Nc2ccc(-n3cncn3)cc2)s1` [Compound 102] reads at least 40 µM; that for `O=C(NCCc1c[nH]cn1)c1ccc(C(=O)Nc2ccc(-n3cncn3)cc2)s1` [Compound 103], at least 40 µM. `O=C(Nc1ccc(-n2cncn2)cc1)c1ccc(C(=O)N[C@@H]2CC3CCC2C3)s1` (stereo partly drawn) [Compound 104] came in with an IC50 of at least 40 µM. The result for `Cc1cc(CNC(=O)c2ccc(C(=O)Nc3ccc(-n4cncn4)cc3)s2)no1` [Compound 105] reads at least 40 µM.

`O=C(NCC1CCCCC1)c1ccc(C(=O)Nc2ccc(-n3cncn3)cc2)s1` [Compound 106]: the IC50 was at least 40 µM.

The compound `CN(Cc1ccccc1)C(=O)c1ccc(C(=O)Nc2ccc(-n3cncn3)cc2)s1` [Compound 107] registered an IC50 of at least 40 µM.

Consider `O=C(NCCc1ccccc1)c1ccc(C(=O)Nc2ccc(-n3cncn3)cc2)s1` [Compound 108], for which the IC50 is at least 40 µM. Next, `Cc1cc(C)nc(NC(=O)c2ccc(C(=O)Nc3ccc(-n4cncn4)cc3)s2)c1` [Compound 109]: at least 40 µM.

For `COc1ccccc1NC(=O)c1ccc(C(=O)Nc2ccc(-n3cncn3)cc2)s1` [Compound 110], the IC50 was at least 40 µM.

Compound `Cc1cnc(CNC(=O)c2ccc(C(=O)Nc3ccc(-n4cncn4)cc3)s2)cn1` [Compound 111] came in with an IC50 of at least 40 µM. Next, `C[C@@H](NC(=O)c1ccc(C(=O)Nc2ccc(-n3cncn3)cc2)s1)C1CCCCC1` [Compound 112]: at least 40 µM; `O=C(Nc1ccc(-n2cncn2)cc1)c1ccc(C(=O)N[C@@H]2CCc3ccccc32)s1` [Compound 113]: at least 40 µM. Next, `O=C(Nc1ccc(-n2cncn2)cc1)c1ccc(C(=O)NC2Cc3ccccc3C2)s1` [Compound 114]: at least 40 µM; `O=C(NCc1ccc2c(c1)CCO2)c1ccc(C(=O)Nc2ccc(-n3cncn3)cc2)s1` [Compound 115]: at least 40 µM; `O=C(Nc1ccc(-n2cncn2)cc1)c1ccc(C(=O)N2CCCC(c3ccccc3)C2)s1` (stereo not drawn) [Compound 116]: at least 40 µM. The result for `O=C(Nc1ccc(-n2cncn2)cc1)c1ccc(C(=O)N2CCN(c3ccccc3)CC2)s1` [Compound 117] reads at least 40 µM; that for `NS(=O)(=O)c1ccc(NC(=O)c2ccc(C(=O)Nc3ccc(-n4cncn4)cc3)s2)cc1` [Compound 118], at least 40 µM; that for `COc1cccc(C2CCN(C(=O)c3ccc(C(=O)Nc4ccc(-n5cncn5)cc4)s3)C2)c1` (stereo not drawn) [Compound 119], at least 40 µM. Regarding `COc1ccc(NC(=O)c2ccc(C(=O)Nc3ccc(N4CCOCC4)cc3)s2)c(C)c1` [Compound 120], the IC50 was at least 40 µM. Next, `COc1ccc(NC(=O)c2ccc(C(=O)Nc3ccc(N4CCCCC4)cc3)s2)c(C)c1` [Compound 121]: at least 40 µM.
